In ChEMBL document CHEMBL1127155, “Synthesis and antiviral activity of 9-(phosphonoalkylnyloxy)purines: Novel acyclonucleotides” (Bioorg Med Chem Lett, 1993) one finds Activity, IC50 and Dose data, which are given here for 3 molecules.

The test system of experiment [1] is Human alphaherpesvirus 1. As to the kind of experiment: Tested for its effect on replication of herpes simplex type-1 (HSV-1) at the dose up to 100 ug/mL; NE: No effect on replication. In kind it is functional, organism-based.
The subject of experiment [2] is Human alphaherpesvirus 2. As to the kind of experiment: Tested for the concentration at which compound showed activity against replication of herpes simplex type-2 (HSV-2). In kind it is functional, organism-based.
For the next experiment, the system named is MRC5. As to the kind of experiment: Tested for inhibition of DNA synthesis in MRC-5 cells. The settings on record: Homo sapiens. In kind it is functional, cell-based.
The subject of experiment [3] is Cytomegalovirus. As to the kind of experiment: Tested for its effect on replication of cytomegalovirus (CMV) at the dose up to 100 ug/mL; NE: No effect on replication. Format: functional, organism-based.
Experiment [4] has as its system Cytomegalovirus. As to the kind of experiment: Tested for its effect on replication of cytomegalovirus (CMV) at the dose up to 100 ug/mL; NE: No effect on replication. Format: functional, organism-based.
The test system of experiment [5] is Human alphaherpesvirus 1. As to the kind of experiment: Tested for the concentration at which compound showed activity against its effect on replication of herpes simplex type-1 (HSV-1). In kind it is functional, organism-based.
A further experiment has as its system Human alphaherpesvirus 3. As to the kind of experiment: Tested for the concentration at which compound showed activity against its effect on replication of varicella zoster virus. In kind it is functional, organism-based.
The test system of experiment [6] is Human alphaherpesvirus 1. As to the kind of experiment: Tested for concentration at which cytotoxicity was observed in herpes simplex type-1 (HSV-1). In kind it is functional.
In experiment [7] the test system is Cytomegalovirus. As to the kind of experiment: Tested for the concentration at which compound showed activity against its effect on replication of Cytomegalovirus. Format: functional, organism-based. The settings on record: Human betaherpesvirus 5.
Experiment [8] concerns Human alphaherpesvirus 2. As to the kind of experiment: Tested for the concentration at which compound showed activity against its effect on replication of herpes simplex type-2 (HSV-2). In kind it is functional, organism-based.

In brackets after ≈: the same amount, converted by molar mass.

In general, IC50 refers to the concentration that gives 50% inhibition. Read a high IC50 as weaker potency. `Nc1nc(O)c2ncn(OCC/C(=C/Cl)P(=O)(O)O)c2n1`: the Activity result with Human alphaherpesvirus 1 [1] and in the experiment on Cytomegalovirus [3] was “No effect” in each case. The results for the IC50 in the experiment on Human alphaherpesvirus 2 [2] and in the experiment with MRC5 were 25 mg/L (≈ 74.5 µM) and 17 mg/L (≈ 50.6 µM), respectively.
In the case of `Nc1ncnc2c1ncn2OCC#CP(=O)(O)O`, the Activity result in the experiment with Human alphaherpesvirus 1 [1] and in the experiment with Cytomegalovirus [4] was “No effect” in each case. Also, the IC50 in the experiment with Human alphaherpesvirus 2 [2] worked out at 14 mg/L (≈ 52 µM); in the experiment with MRC5, 98 mg/L (≈ 364 µM).
As to `Nc1nc(O)c2ncn(OCC#CP(=O)(O)O)c2n1`, the IC50 with Human alphaherpesvirus 1 [5] amounted to 6.5 mg/L (≈ 22.8 µM); with Human alphaherpesvirus 3 it was 3.2 mg/L (≈ 11.2 µM); with Cytomegalovirus [7], 3.8 mg/L (≈ 13.3 µM); in the experiment with MRC5, 4.2 mg/L (≈ 14.7 µM); with Human alphaherpesvirus 2 [8], 3.9 mg/L (≈ 13.7 µM). The Dose in the experiment on Human alphaherpesvirus 1 [6] was 30 µg/mL.
